A word on the melting point: it is the temperature, or range, at which the solid turns liquid.

The subject of one series is PDE IV. The experiment in a line: Inhibition of PDE4 activity (method of Bauer and Schwabe, microtiter plates). The series is classed as biochemical. The text has this: The activity test can be carried out, for example, according to the method of Bauer and Schwabe. For this, the method is adapted to microtiter plates (Naunyn-Schmiedeberg's Arch. Pharmacol. 1980, 311, 193-198). The PDE reaction takes place in the first step here. In a second step, the resulting 5′-nucleotide is cleaved by a 5′-nucloetidase of the snake venom of Crotalus atrox to the uncharged nucleoside. In the third step, the nucleoside is separated from the remaining charged substrate on ion-exchange columns. The columns are eluted directly into minivials, into which 2 ml of scintillator fluid are additionally added for counting, using 2 ml of 30 mM ammonium formate (pH 6.0).

As to `COc1cc2c(cc1OC)[C@@H]1CCCC[C@@H]1[N+]([O-])=C2c1ccc(S(C)(=O)=O)cc1` [Compound 1, (−)-cis-8,9-Dimethoxy-6-(4-methanesulfonylphenyl)-1,2,3,4,4a,10b-hexahydrophenanthridine-N-oxide], the melting point was in the range of 229 to 231 °C. The “-log IC50” value in the series on PDE IV is 6.09.

The record behind these values is patent US6630483B2, “Phenanthridine-N-oxides” (Altana Pharma AG, priority 2000, dated 2003).
